{"source": "patent EP0263213B1", "about": "“C20 Through C26 amino steroids” (THE UPJOHN COMPANY, priority 1986, dated 1988)", "key": {"rat brain synaptosomes [1]": {"test_system": "rat brain synaptosomes", "test": "Malonyldialdehyde (MDA) Formation Assay", "type": "biochemical", "settings": "active = inhibits MDA formation by 50% or more at 200»M or less; 10 min at 37°, pH 7.0, 150 uM Fe+++ and 50 uM Fe++", "protocol": "Since lipid peroxidation is involved in the pathophysiology of central nervous system trauma, compounds which inhibit MDA formation are useful in treating the conditions listed below.\nWhile not necessary to determine MDA formation, the above assays have been modified as follows: rat brain synaptosomes are prepared as described in the Example about the conjugated diene assay, except that the final wash of the synaptosomes and final suspension are in physiological (normal) saline in which the pH has been adjusted to 7.0. The synaptosomes are incubated for 10 min at 37° in physiological (normal) saline pH 7.0 (total volume = 100 ul) containing; 10 ul synaptosomal suspension, 10% DMSO plus or minus drug, 150 uM Fe⁺⁺⁺ and 50 uM Fe++. The incubation is started by the rapid addition of iron to the otherwise complete reaction. The iron solutions are prepared fresh as ferric chloride and ferrous ammonium sulfate in argon-purged water. Following the 10 min incubation, the reaction is stopped by the addition of 500 ul ice-cold 12% trichloroacetic acid prepared in 0.5 N hydrochoric acid. Water (300 ul) is then added along with 100 ul of freshly prepared thiobarbituric acid (3.3% in 0.5N sodium hydroxide) and 10 ul of 5mM desferrioxamine. The sample is then heated in a boiling water bath for 20 minutes. The samples are cooled and centrifuged for 15 minutes at 1500 xg and the absorbance of the supernatant fraction is read at 532 nm. The % inhibition of MDA formation is calculated by dividing the absorbance of sample containing drug by the absorbance of samples incubated without drug. Reaction blanks are samples incubated in the absence of iron. A compound that inhibits MDA formation by 50% or more at a concentration of 200»M or less is considered \"active\"."}, "interleukin-1": {"test_system": "interleukin-1", "test": "inhibition of interleukin-1 induced T cell proliferation assay", "type": "cell-based", "settings": "for % Inhibition at 10⁻⁶ M: interleukin-1 induced T cell proliferation", "description": "The inhibition of interleukin-1 induced T cell proliferation assay, Proc. Nat. […] Since people with arthritis make excess interleukin 1, compounds which inhibit the activity of interleukin 1 are useful in the treatment of arthritis. According to this procedure compounds which inhibit the activity of interleukin 1 greater that 30% at 10⁻⁶ M are considered to be \"active\"."}, "rat brain synaptosomes [2]": {"test_system": "rat brain synaptosomes", "test": "Conjugated Diene Formation Assay", "type": "biochemical", "settings": "active = inhibits conjugated diene formation by 50% or more; 100 »M (or less) of drug, 100 »M hydrogen peroxide, 200 »M ferrous ammonium sulfate", "description": "The formation of conjugated dienes as assayed by Braughler, J. Neurochem., 44, 1282 (1985), Bucher, Fund. Applied Tox., 3, 222 (1983) and Tein, Arch. Biochem. Biophy., 216, 142 (1982) is a standard pharmacological laboratory procedure useful for identifying compounds which inhibit lipid peroxidation. Since lipid peroxidation is involved in the pathophysiology of central nervous system trauma, compounds which inhibit conjugated diene formation are useful in treating the conditions listed below.\n44, 1282 (1985). Synaptosomal suspension (10 »l) is added to 1 ml of physiological (normal) saline containing 1 % Lubrol PX (Sigma Chemical Co. St. Louis, Mo.), 100 »M hydrogen peroxide and 100 »M (or less) of the drug to be tested prepared in either absolute ethanol or water depending upon solubility. The reaction is started by the rapid addition of 200 »M ferrous ammonium sulfate is prepared in argon-purged water. The sample is rapidly mixed and the change in absorbance at 232nm is followied in a Gilford Response Spectrophotometer equipped with a rapid sampler. Due to the rapidity of the reaction, rapid addition of the iron, rapid mixing and sampling are obligatory to the accuracy of the assay. For best results absorbance readings of one/sec should be started within 5 sec following the addition of iron. The initial linear rate of absorbance change during the first 30 sec of reaction are compared with the rate of a reaction containing all reagents except synaptosomes. The difference in rates is the rate of conjugated diene formation. Rates with drug are compared to rates obtained in the absence of drug and the % inhibition is calculated. A compound that inhibits conjugated diene formation by 50% or more is considered to be \"active\"."}, "ACAT": {"test_system": "ACAT", "test": "AcylCoA:Cholesterol Acyltransferase (ACAT) Inhibition Assay", "type": "cell-based", "settings": "for inhibiting ACAT: active = inhibits ACAT activity equal to, or greater than, that of chlorpromazine", "description": "ACAT esterifies arterial cholesterol which is a key reaction in the development of atherosclerosis. The procedure of Bell, Can. […] In the ACAT assay it is preferred to use Fu5AH cells, see Lipids 9, 526 (1974). According to this procedure, compounds which inhibit ACAT activity equal to, or greater than, that of chlorpromazine are considered \"active\"."}, "mouse head injury": {"test_system": "mouse head injury", "test": "in vivo mouse head injury procedure of Hall (1 hr post-injury grip test)", "settings": "1 hr after head injury, statistically significant (p < 0.05)"}, "mucous secretion": {"test_system": "mucous secretion", "test": "inhibition of mucous secretion assay of Johnson", "settings": "active = inhibits or blocks enhancement of induced mucous secretions", "description": "The inhibition of mucous secretion assay of Johnson Int. […] According to this procedure compounds which inhibit or block enhancement of induced mucous secretions when tested are considered to be \"active\"."}, "chick embryo": {"test_system": "chick embryo", "test": "fertile egg or chick embryo assay of Folkman (angiogenesis)", "type": "in vivo", "settings": "50 »g/10 »l in the presence of heparin", "description": "According to this procedure compounds which are considered to be \"active\" (i.e. antiangiogenic) give an avascular zone of 4 mm or greater in some embryos when tested at 50 »g/10 »l in the presence of 50 »g/10 » of heparin."}, "arachidonic acid": {"test_system": "arachidonic acid", "test": "Arachidonic Acid Antagonism Assay (AAAA)", "type": "in vivo", "settings": "active = elevates the LD50 of sodium arachidonate outside the 95% confidence interval of the control LD50; test compound IV 15 minutes before; male CF-1 mice", "protocol": "Since these metabolites contribute to the pathological problems associated with stroke, spinal trauma and head injury, compounds which antagonize arachidonic acid are useful in treating stroke, spinal trauma and head injury.\nWhile not necessary to determine arachidonic acid antagonism, the above assay has been modified as follows: Charles River male CF-1 mice weighing 18-22g are treated IV with the test compound dissolved in 1.0% Tween-80 and 0.1% hydrochloric acid in distilled water, 0.2 ml total volume. Fifteen minutes later sodium arachidonate (90% pure) in physiological (normal) saline is injected into the tail vein. The LD₅₀ is measured using the Spearman-Karber method with a log dose interval of 0.05 (N=6). Compounds which elevate the LD₅₀ outside of the 95% confidence interval of the control LD₅₀ are considered to be \"active\"."}, "[3]": {"test_system": "aspirin/cold induced ulcer", "test": "aspirin/cold induced ulcer assay of Rainsford", "type": "in vivo", "settings": "active = 50% or more reduction of ulcer index", "description": "According to this procedure compounds which give a 50% or more reduction of ulcer index are considered to be \"active\"."}, "SEA Japanese Quail": {"test_system": "SEA Japanese Quail", "test": "Antiatherosclerosis Screen in SEA Japanese Quail", "type": "in vivo", "settings": "quail fed an atherogenic diet; active = decrease of serum or arterial cholesterol > 30 %"}}, "data": [{"compound": "C[C@@H]1C[C@H]2[C@@H]3CCC4=CC(=O)C=C[C@]4(C)C3=CC[C@]2(C)[C@H]1C(=O)CN1CCN(c2cc(N3CCOCC3)nc(N3CCOCC3)n2)CC1", "note": "[Example 86]", "values": [{"measurement": "inhibition of MDA formation", "setting": "rat brain synaptosomes [1]", "value": "demonstrate such activity by inhibition of MDA formation"}, {"measurement": "% Inhibition at 10⁻⁶ M", "setting": "interleukin-1", "value": 84, "unit": "%"}, {"measurement": "inhibition of conjugated diene formation", "setting": "rat brain synaptosomes [2]", "value": "demonstrate such activity by inhibition of conjugated dienes"}]}, {"compound": "CCN(CC)c1cc(N2CCN(CC(=O)[C@@]3(O)[C@H](C)C[C@H]4[C@@H]5CCC6=CC(=O)C=C[C@]6(C)C5=CC[C@@]43C)CC2)nc(N(CC)CC)n1.Cl.O", "note": "[Example 18, 21-[4-[2,6-Bis(diethylamino)-4-pyrimidinyl]-1-piperazinyl]-17α-hydroxy-16α-methylpregna-1,4,9(11)-triene-3,20-dione hydrochloride hydrate]", "values": [{"measurement": "% Inhibition of ACAT (5 »g/ml)", "setting": "ACAT", "value": 48.4, "unit": "%"}, {"measurement": "inhibiting ACAT", "setting": "ACAT", "value": "active in inhibiting ACAT"}, {"measurement": "% Increase in 1 hr Post-Injury Grip Test Scores After 3 mg/kg", "setting": "mouse head injury", "value": 112.6, "unit": "%"}]}, {"compound": "CS(=O)(=O)O.CS(=O)(=O)O.C[C@@H]1C[C@H]2[C@@H]3CCC4=CC(=O)C=C[C@]4(C)C3=CC[C@]2(C)[C@H]1C(=O)CN1CCN(c2cc(N3CCCC3)nc(N3CCCC3)n2)CC1", "note": "[Example 83, 16α-Methyl-21-[4-[2,6-bis(pyrrolidino)-4-pyrimidyl]-1-piperazinyl]pregna-1,4,9(11)-triene-3,20-dione dimethane-sulfonate]", "values": [{"measurement": "inhibition of MDA formation", "setting": "rat brain synaptosomes [1]", "value": "demonstrate such activity by inhibition of MDA formation"}, {"measurement": "% Inhibition at 10⁻⁶ M", "setting": "interleukin-1", "value": 62, "unit": "%"}, {"measurement": "inhibition of mucous secretion", "setting": "mucous secretion", "value": "preferred mucous inhibitors"}, {"measurement": "% Increase in 1 hr Post-Injury Grip Test Scores After 3 mg/kg", "setting": "mouse head injury", "value": 134.5, "unit": "%"}, {"measurement": "inhibition of conjugated diene formation", "setting": "rat brain synaptosomes [2]", "value": "demonstrate such activity by inhibition of conjugated dienes"}]}, {"compound": "11α,17α-Dihydroxy-21-[4-(2-pyridinyl)-1-piperazinyl]pregn-4-ene-3,20-dione 11-(3,3-dimethyl-1-butyrate dihydrochloride [Example 28]", "values": [{"measurement": "% of Embryos with 4 mm or Greater Avascular Zone", "setting": "chick embryo", "value": 73, "unit": "%"}]}, {"compound": "C[C@]12CCC(=O)C=C1CC[C@@H]1C2=CC[C@@]2(C)[C@H]1CC[C@]2(O)C(=O)CN1CCN(c2cc(N3CCOCC3)nc(N3CCOCC3)n2)CC1.Cl.Cl.O", "note": "[Example 105, 21-[4-(2,6-Bis(4-morpholinyl)-4-pyrimidinyl)-1-piperazinyl]-17α-hydroxypregna-4,9(11)-diene-3,20-dione dihydrochloride, hydrate]", "values": [{"measurement": "% Inhibition at 10⁻⁶ M", "setting": "interleukin-1", "value": 76, "unit": "%"}, {"measurement": "inhibition of mucous secretion", "setting": "mucous secretion; dihydrochloride, hydrate", "value": "preferred mucous inhibitors"}]}, {"compound": "CS(=O)(=O)O.C[C@]12CCC(=O)C=C1CC[C@@H]1C2=CC[C@@]2(C)[C@H]1CC[C@]2(O)C(=O)CN1CCN(c2ccccn2)CC1", "note": "[Example 2, 17α-Hydroxy-21-[4-(2-pyridinyl)-1-piperazinyl]pregna-4,9(11)-diene-3,20-dione methanesulfonate]", "values": [{"measurement": "inhibition of mucous secretion", "setting": "mucous secretion; methanesulfonate", "value": "preferred mucous inhibitors"}, {"measurement": "arachidonic acid antagonism", "setting": "arachidonic acid", "value": "demonstrate arachidonic acid antagonism"}, {"measurement": "inhibition of conjugated diene formation", "setting": "rat brain synaptosomes [2]", "value": "demonstrate such activity by inhibition of conjugated dienes"}]}, {"compound": "CN(C)c1cc(N2CCN(CC(=O)[C@@]3(O)CC[C@H]4[C@@H]5CCC6=CC(=O)CC[C@]6(C)C5=CC[C@@]43C)CC2)nc(N(C)C)n1.Cl.Cl.O", "note": "[Example 16, 17α-Hydroxy-21-[4-[2,6-bis(dimethylamino)-4-pyrimidinyl]-1-piperazinyl]pregna-4,9(11)-diene-3,20-dione dihydrochloride hydrate]", "values": [{"measurement": "inhibition of mucous secretion", "setting": "mucous secretion", "value": "demonstrate such activity"}, {"measurement": "% of Embryos with 4 mm or Greater Avascular Zone", "setting": "chick embryo", "value": 91, "unit": "%"}, {"measurement": "anti-ulcer activity", "setting": "[3]", "value": "demonstrates anti-ulcer activity"}]}, {"compound": "CCN(CC)c1ccc(N2CCN(CC(=O)[C@H]3CC[C@H]4[C@@H]5CCC6=CC(=O)C=C[C@]6(C)[C@H]5CC[C@]34C)CC2)nc1N(CC)CC.Cl.Cl", "note": "[Example 120]", "values": [{"measurement": "inhibition of MDA formation", "setting": "rat brain synaptosomes [1]", "value": "demonstrate such activity by inhibition of MDA formation"}, {"measurement": "% Inhibition at 10⁻⁶ M", "setting": "interleukin-1", "value": 56, "unit": "%"}, {"measurement": "inhibition of interleukin 1", "setting": "interleukin-1; active = inhibits the activity of interleukin 1 greater than 30% at 10⁻⁶ M", "value": "demonstrate inhibition of interleukin 1"}]}, {"compound": "C[C@]12CCC(=O)C=C1CC[C@@H]1C2=CC[C@@]2(C)[C@H]1CC[C@]2(O)C(=O)CN1CCN(c2ccccn2)CC1.Cl", "note": "[Example 3, 17α-Hydroxy-21-[4-(2-pyridinyl)-1-piperazinyl]pregna-4,9(11)-diene-3,20-dione hydrogen chloride salt]", "values": [{"measurement": "% Inhibition of ACAT (5 »g/ml)", "setting": "ACAT", "value": 63.9, "unit": "%"}, {"measurement": "inhibiting ACAT", "setting": "ACAT", "value": "active in inhibiting ACAT"}, {"measurement": "reduction of serum and arterial cholesterol", "setting": "SEA Japanese Quail", "value": "demonstrates reduction of serum and arterial cholesterol"}]}]}
